The Kinase Knowledgebase extract (Sharma et al. 2016)

These compounds were tested against PIK3CB;PIK3CG;PIK3CD;PIK3CA (human) (UniProt P48736) (assay: Enzyme Assay).
`COc1ccc2c(c1)S(=O)(=O)Cc1c(C(=O)N3CCOCC3)nn(-c3ccccc3)c1-2` gave an IC50 of 349 nM.
Work on `O=C(c1nn(C2CCCNCC2)c2c1CS(=O)(=O)c1ccccc1-2)N1CCOCC1` (centres undefined) yielded an IC50 of 1900 nM.
Work on `COCCN1CCC[C@H](n2nc(C(=O)N3CCOCC3)c3c2-c2cccc(F)c2S(=O)(=O)C3)C1` yielded an IC50 of 31 nM.
`CC(C)(C)OC(=O)N1CCC(Cn2nc(C(=O)N3CCOCC3)c3c2-c2ccccc2S(=O)(=O)C3)CC1` gave an IC50 of 495 nM.
`O=C(c1nn([C@H]2CCCN(Cc3cccnc3)C2)c2c1CS(=O)(=O)c1ccccc1-2)N1CCOCC1` gave an IC50 of 85 nM.
With `O=C(c1nn(-c2cccc(Cn3cccn3)c2)c2c1CS(=O)(=O)c1ccccc1-2)N1CCOCC1` the IC50 was 488 nM.
`O=C(c1nn(-c2cccc(OCCn3ccnc3)c2)c2c1CS(=O)(=O)c1ccccc1-2)N1CCOCC1` was tested, and the IC50 was 179 nM.
`O=C(c1nn(-c2ccccc2)c2c1CS(=O)(=O)c1cc(Br)ccc1-2)N1CCOCC1` was tested, and the IC50 was 904 nM.
Work on `COC1CCN(Cc2cccc(-n3nc(C(=O)N4CCOCC4)c4c3-c3ccccc3S(=O)(=O)C4)c2)CC1` yielded an IC50 of 240 nM.
With `Cc1nc2ccc(-n3nc(C(=O)N4CCOCC4)c4c3-c3ccccc3S(=O)(=O)C4)cc2s1` the IC50 was 662 nM.
In the case of `CN(C)CCN1CCCC(n2nc(C(=O)N3CCOCC3)c3c2-c2ccccc2S(=O)(=O)C3)C1` (centres undefined), the IC50 is reported as 72 nM.
Work on `O=C(c1nn(C2CCN(CCCl)C2)c2c1CS(=O)(=O)c1ccccc1-2)N1CCOCC1` (centres undefined) yielded an IC50 of 305 nM.
`O=C(c1nn(C2CCN(CCN3CCOCC3)C2)c2c1CS(=O)(=O)c1ccccc1-2)N1CCOCC1` (centres undefined) showed an IC50 of 192 nM.
For `O=C(c1nn(-c2cccc(CN3CCCC3)c2)c2c1CS(=O)(=O)c1ccccc1-2)N1CCOCC1`, the IC50 was 516 nM.
Compound `COCCN1CCCC(n2nc(C(=O)N3CCOCC3)c3c2-c2ccccc2S(=O)(=O)C3)CC1` (centres undefined) has an IC50 of 478 nM.
For `O=C(O)c1nn(-c2ccc(CN3CCOCC3)cc2)c2c1CS(=O)(=O)c1ccccc1-2`, the IC50 was 4040 nM.
In the case of `O=C(c1nn(C2CCCN(CCC3CCOCC3)C2)c2c1CS(=O)(=O)c1c(F)cccc1-2)N1CCOCC1` (centres undefined), the IC50 is reported as 22 nM.
For `O=C(c1nn(C2CCCN(CCn3ccnc3)C2)c2c1CS(=O)(=O)c1ccccc1-2)N1CCOCC1` (centres undefined), the IC50 was 52 nM.
In the case of `O=C(c1nn(C2CCCCC2)c2c1CS(=O)(=O)c1sccc1-2)N1CCOCC1`, the IC50 is reported as 302 nM.
For `COc1cccc(Cn2nc(C(=O)N3CCOCC3)c3c2-c2ccccc2S(=O)(=O)C3)c1`, the IC50 was 1170 nM.
`O=C(CC1CCCCC1)N1CCC(n2nc(C(=O)N3CCOCC3)c3c2-c2ccccc2S(=O)(=O)C3)C1` (centres undefined) was tested, and the IC50 was 711 nM.
`CN(C)CCn1nc(C(=O)N2CCOCC2)c2c1-c1ccccc1S(=O)(=O)C2` was tested, and the IC50 was 1500 nM.
Work on `O=C(c1nn(-c2ccc(CN3CCOCC3)nc2)c2c1CS(=O)(=O)c1ccccc1-2)N1CCOCC1` yielded an IC50 of 614 nM.
In the case of `CN(C)S(=O)(=O)c1cccc(-n2nc(C(=O)N3CCOCC3)c3c2-c2ccccc2S(=O)(=O)C3)c1`, the IC50 is reported as 641 nM.
`COCN1c2c(C(=O)N3CCOCC3)nn(-c3ccccc3)c2-c2ccccc2S1(=O)=O` gave an IC50 of 11700 nM.
`O=C(c1nn(-c2cccc(OCCn3cccn3)c2)c2c1CS(=O)(=O)c1ccccc1-2)N1CCOCC1` gave an IC50 of 445 nM.
`CS(=O)(=O)C1CCN(Cc2cccc(-n3nc(C(=O)N4CCOCC4)c4c3-c3ccccc3S(=O)(=O)C4)c2)C1` (centres undefined) showed an IC50 of 464 nM.
For `COC1CCN(CCN2CCC[C@H](n3nc(C(=O)N4CCOCC4)c4c3-c3ccccc3S(=O)(=O)C4)C2)C1` (some centres undefined), the IC50 was 25 nM.
For `O=C(c1ccc2c(c1)-c1c(c(C(=O)N3CCOCC3)nn1-c1ccccc1)CS2(=O)=O)N1CCCCC1`, the IC50 was 3410 nM.
`O=C(c1nn(C2CCCN(C3CCOCC3)C2)c2c1CS(=O)(=O)c1ccccc1-2)N1CCOCC1` (centres undefined) was tested, and the IC50 was 254 nM.
With `O=C(c1nn(C2CCCN(CCC3CCCCC3)C2)c2c1CS(=O)(=O)c1ccccc1-2)N1CCOCC1` (centres undefined) the IC50 was 155 nM.
`COCCOc1cccc(-n2nc(C(=O)N3CCOCC3)c3c2-c2ccccc2S(=O)(=O)C3)c1` was tested, and the IC50 was 726 nM.
Compound `CC1COCCN1C(=O)c1nn(-c2ccccc2)c2c1CS(=O)(=O)c1ccccc1-2` (centres undefined) has an IC50 of 13900 nM.
In the case of `O=C(c1nn([C@H]2CCCN(CCN3CC(F)(F)C3)C2)c2c1CS(=O)(=O)c1c(F)cccc1-2)N1CCOCC1`, the IC50 is reported as 22 nM.
`Cn1nc(C(=O)N2CCOCC2)c2c1-c1cccc(Br)c1S(=O)(=O)C2` was tested, and the IC50 was 1090 nM.
`O=C(c1nn(C2CCCN(CCc3ccccc3)C2)c2c1CS(=O)(=O)c1ccccc1-2)N1CCOCC1` (centres undefined) was tested, and the IC50 was 711 nM.
In the case of `O=C(c1nn(-c2ccccc2)c2c1CS(=O)(=O)c1ccccc1-2)N1CCOCC1`, the IC50 is reported as 244 nM.
With `CC(C)Cn1nc(C(=O)N2CCOCC2)c2c1-c1ccccc1S(=O)(=O)C2` the IC50 was 960 nM.
In the case of `O=C(c1nn(-c2ccc(Cl)cc2)c2c1CS(=O)(=O)c1ccccc1-2)N1CCOCC1`, the IC50 is reported as 895 nM.
`O=C(c1nn(C2CCCN(CCC3CCOCC3)C2)c2c1CS(=O)(=O)c1c(Cl)cccc1-2)N1CCOCC1` (centres undefined) showed an IC50 of 38 nM.
In the case of `O=C(c1nn(CCc2ccccn2)c2c1CS(=O)(=O)c1ccccc1-2)N1CCOCC1`, the IC50 is reported as 1920 nM.
In the case of `O=C(c1nn(C2CCN(CCN3CCC(F)CC3)C2)c2c1CS(=O)(=O)c1ccccc1-2)N1CCOCC1` (centres undefined), the IC50 is reported as 149 nM.
Compound `O=C(c1nn([C@H]2CCCN(CCn3ccnc3)C2)c2c1CS(=O)(=O)c1ccccc1-2)N1CCOCC1` has an IC50 of 5600 nM.
Work on `CC(C)CCN1CCCC(n2nc(C(=O)N3CCOCC3)c3c2-c2ccccc2S(=O)(=O)C3)C1` (centres undefined) yielded an IC50 of 138 nM.
